In patent US4880809A, “1,4-disubstituted piperazines (or homopiperazines) as platelet-activating factor antagonists” (Takeda Chemical Industries, Ltd., priority 1987, dated 1989):
Where a name gives a salt, the structure may show the parent alone.

Columns and labels:
[1] = test system: PAF-Induced Platelet Aggregation; experiment: Inhibitory Action on PAF-Induced Platelet Aggregation; format: cell-based, New Zealand white male rabbits; details: Oryctolagus cuniculus, Drug Concentration: 3 × 10^-5 M, rabbit PRP
Protocol: Blood was collected from the hearts of conscious New Zealand white male rabbits weighing 2 to 3 kg using citric acid as an anticoagulant (one volume part of 3.15% citric acid per 9 volume parts of the whole blood). The blood was subjected to a centrifuge at 800 rpm for ten minutes to obtain platelet rich plasma (PRP). The remaining blood after collecting the PRP was subjected to a centrifuge at 3000 rpm for ten minutes to obtain platelet poor plasma (PPP). PRP was diluted with PPP, and the number of platelets was adjusted to 500,000/μl. Platelet aggregation was examined by means of turbidimetry [Born, Nature, 194, 927-929 (1962)] with 8 channel aggregometer (NBS HEMA TRACER 6 Nikoh, Bioscience, Japan). More concretely, PRP (250 μl) was kept warm (37° C.) for three minutes in a silicon-processed cuvette, to which was added a test sample (25 μl) dissolved in a physiological saline or in 10mM dimethylsulfoxide followed by dilution with a physiological saline. Two minutes later, PAF (25 μl, 3×10^-9 -1×10^-8 M), dissolved in a physiological saline, was added and then the maximum aggregation rate was determined. As the control, physiological saline without test sample was added to the cuvette, and the inhibitory rate thereon was determined.

PAF-Induced Hypotension = experiment: Inhibitory Action on PAF-Induced Hypotension; format: in vivo, SD (Jcl) male rats; details: po, 30 mg/kg p.o., rat
Protocol: SD (Jcl) male rats of 6 to 8 week old were subjected to the experiment. After fasting overnight, the rats were cannulated into the femoral artery and vein under anesthesia with pentobarbital. A transducer (MPU-0.5-290O-III, TOYO BALDWIN, Japan) was connected with the artery cannula, and blood pressure was continuously measured. […] The rate of inhibition of lowering of blood pressure after administration of the test samples against the control was evaluated.

## CCOc1cc2c(cc1OCC)CCC(C(=O)N1CCN(C(=O)c3cc(OC)c(OC)c(OC)c3)CC1)=C2 [Example 65, 1-(6,7-diethoxy-1,2-dihydro-3-naphthoyl)-4-(3,4,5-trimethoxybenzoyl)piperazine]
[1]
  inhibition at 30 µM: 100%
PAF-Induced Hypotension; after 1 hr
  inhibition in vivo at 30 mg/kg: 100%
PAF-Induced Hypotension; after 2 hrs
  inhibition in vivo at 30 mg/kg: 100%
PAF-Induced Hypotension; after 4 hrs
  inhibition in vivo at 30 mg/kg: 77%

## COc1cc2c(cc1OC)CCCCC(C(=O)N1CCN(Cc3cc(OC)c(OC)c(OC)c3)CC1)=C2 [Example 84, 1-(2,3-dimethoxy-5,6,7,8-tetrahydrobenzocycloocten-9-ylcarbonyl)-1-(3,4,5-trimethoxybenzyl)piperazine hydrochloride]
[1]
  inhibition at 30 µM: 100%
PAF-Induced Hypotension; after 1 hr
  inhibition in vivo at 30 mg/kg: 100%
PAF-Induced Hypotension; after 2 hrs
  inhibition in vivo at 30 mg/kg: 100%
PAF-Induced Hypotension; after 4 hrs
  inhibition in vivo at 30 mg/kg: 73%

## COc1cc2c(cc1OC)CCC(C(=O)N1CCN(Cc3cc(OC)c(OC)c(OC)c3)CC1)=C2 [Example 5, 1-(6,7-dimethoxy-1,2-dihydro-3-naphthoyl)-4-(3,4,5-trimethoxybenzyl)piperazine hydrochloride]
[1]
  inhibition at 30 µM: 100%
PAF-Induced Hypotension; after 1 hr
  inhibition in vivo at 30 mg/kg: 77%
PAF-Induced Hypotension; after 2 hrs
  inhibition in vivo at 30 mg/kg: 75%
PAF-Induced Hypotension; after 4 hrs
  inhibition in vivo at 30 mg/kg: 49%

## COc1cc2c(cc1OC)CCCC(C(=O)N1CCN(Cc3cc(OC)c(OC)c(OC)c3)CC1)=C2 [Example 49, 1-(2,3-dimethoxy-6,7-dihydro-5H-benzocyclohepten-8-ylcarbonyl)-4-(3,4,5-trimethoxybenzyl)piperazine hydrochloride]
[1]
  inhibition at 30 µM: 100%
PAF-Induced Hypotension; after 1 hr
  inhibition in vivo at 30 mg/kg: 94%
PAF-Induced Hypotension; after 2 hrs
  inhibition in vivo at 30 mg/kg: 97%
PAF-Induced Hypotension; after 4 hrs
  inhibition in vivo at 30 mg/kg: 88%

## COc1cc2c(cc1OC)CCCCC(C(=O)N1CCN(C(=O)c3cc(OC)c(OC)c(OC)c3)CC1)=C2 [Example 85, 1-(2,3-dimethoxy-5,6,7,8-tetrahydrobenzocycloocten-9-ylcarbonyl)-4-(3,4,5-trimethoxybenzoyl)piperazine]
[1]
  inhibition at 30 µM: 100%
PAF-Induced Hypotension; after 1 hr
  inhibition in vivo at 30 mg/kg: 100%
PAF-Induced Hypotension; after 2 hrs
  inhibition in vivo at 30 mg/kg: 100%
PAF-Induced Hypotension; after 4 hrs
  inhibition in vivo at 30 mg/kg: 100%

## CCOc1cc2c(cc1OCC)CCCC(C(=O)N1CCN(Cc3cc(OC)c(OC)c(OC)c3)CC1)=C2 [Example 72, 1-(2,3-diethoxy-6,7-dihydro-5H-benzocyclohepten-8-ylcarbonyl)-4-(3,4,5-trimethoxybenzyl)piperazine hydrochloride]
[1]
  inhibition at 30 µM: 100%
PAF-Induced Hypotension; after 1 hr
  inhibition in vivo at 30 mg/kg: 98%
PAF-Induced Hypotension; after 2 hrs
  inhibition in vivo at 30 mg/kg: 99%
PAF-Induced Hypotension; after 4 hrs
  inhibition in vivo at 30 mg/kg: 75%
